pEC50, pKi: −log10 of the molar value.
Columns and labels:
human CCR2 [1] = molecular target: T1, human CCR2 (Homo sapiens, UniProt P41597); assay: CCR2 functional calcium assay (FLIPR calcium flux, hMCP-1 challenge); format: cell-based; parameters: expressed in transfected cells; host or cells: HEK293 EBNA cells; conditions: for pKi: HEK293 EBNA cells transfected with human CCR2, hMCP-1 challenge, read-out: Functional CCR2 fKi
Procedure, shortened: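 FLIPR Fluo-4 calcium flux in HEK293 EBNA cells transfected with human CCR2, with non-transfected cells as control. Compounds (10-point 1:3 curves, typically 30 μM to 0.5 nM) were added in HBSS/20 mM HEPES/0.1% BSA, pH 7.4, followed by MCP-1 challenge. Peak minus basal signal was expressed as % of EC50 MCP-1 response.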

human CCR2 [2] = molecular target: T1, human CCR2; assay: CCR2 binding assay ([125I]-MCP-1 displacement, SPA); parameters: expressed in transfected cells; host or cells: HEK293 EBNA cells (membrane preparation); conditions: human CCR2-HEK293 EBNA membranes
Protocol: The binding of test compounds to the CCR2 receptor was evaluated using [^125I]-MCP-1.
Briefly, 25 μL assay buffer (25 mM HEPES, pH 7.4, 5 mM MgCl2, 1 mM CaCl2, 0.2% (w/v) protease free BSA, 100 μg/mL bacitracine and 0.1 M NaCl) was placed into total binding wells and 25 μL unlabelled ligand (0.4 μM MCP-1, for determination of non-specific binding) was placed into non-specific binding wells. [^125I]-MCP-1 (25 μL), human CCR2-HEK293 EBNA membrane preparation (25 μL) and SPA beads (25 μL) were added to all the wells. The wells were incubated for 4 h and counted for 1 min/well in a Perkin Elmer Topcount NXT.
The SPA beads (wheat germ agglutinin (WGA) PEI Type A PVT 0.25 mg/well) were prepared by reconstituting lyophilised bead to 100 mg/mL with de-ionised water and further diluting in assay buffer to give 10 mg/mL. The radioligand ([^125I]-MCP-1) was prepared by dilution in assay buffer to give 0.32 μCi/mL, ˜17600 dpm/25 μL (specific activity 2000 Ci/mMol). The final assay concentration was 0.04 nM. The human CCR2-HEK293 EBNA cells membranes were prepared as follows: cells were spun down at 1000×g for 3 min at room temperature, washed in PBS and spun down again. The cells were then homogenised with an Ultra Turrax at setting 6 in 5-10 mL ice cold buffer A (EDTA 10 mM, HEPES 10 mM, pH 7.4) for 10 sec. Following dilution with further ice cold buffer A and spinning at 20000×g for 20 min at 4° C., the mixture was re-homogenised in 5-10 mL ice cold buffer B (EDTA 0.1 mM, HEPES 10 mM, pH 7.4) and spun at 20000×g for 20 min at 4° C. The protein was assayed and re-suspended in buffer C (Buffer B+1 tablet/10 mL of Roche protease inhibitor cocktail) at 3 mg/mL. Before use, the membranes were thawed and diluted with assay buffer to give 80 μg/mL (2 μg/well).
Specific binding was determined as the difference between total binding in the absence of antagonist and binding in the presence of excess antagonist (non-specific binding). Data was expressed as a percentage of specific binding and analysed by a 4-parameter logistic equation using GraphPad Prism 4 software (GraphPad, San Diego, Calif., USA) to yield IC50 values. Ki values were calculated from the IC50 values using the correction for radioligand concentration.

T1 sequence (P41597 whole entry): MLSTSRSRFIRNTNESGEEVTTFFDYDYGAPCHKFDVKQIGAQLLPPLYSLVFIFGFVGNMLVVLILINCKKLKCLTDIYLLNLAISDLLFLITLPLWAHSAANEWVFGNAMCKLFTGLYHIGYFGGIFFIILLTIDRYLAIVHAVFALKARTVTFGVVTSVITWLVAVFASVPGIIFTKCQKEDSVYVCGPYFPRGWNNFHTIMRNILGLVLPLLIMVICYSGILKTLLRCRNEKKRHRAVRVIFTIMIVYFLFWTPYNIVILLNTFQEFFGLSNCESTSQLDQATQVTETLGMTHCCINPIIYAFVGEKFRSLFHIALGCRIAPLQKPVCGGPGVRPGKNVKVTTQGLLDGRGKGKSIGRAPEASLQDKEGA

Row | Compound | pKi (human CCR2 [1]) | other results
1 | Cc1nc2ccnn2c(O)c1Cc1ccc(Cl)cc1 [Example 1, 6-[(4-Chlorophenyl)methyl]-5-methylpyrazolo[1,5-a]pyrimidin-7-ol] | 7.00 to 8.00 | pKi (human CCR2 [2]): 6.00 to 7.00
2 | COCCNC(=O)c1cnn2c(O)c(Cc3cccc(Cl)c3)c(C)nc12 [Example 116, 6-[(3-Chlorophenyl)methyl]-7-hydroxy-N-(2-methoxyethyl)-5-methylpyrazolo[1,5-a]-pyrimidine-3-carboxamide] | 6.00 to 7.00 | 
3 | CSCCNC(=O)c1cnn2c(O)c(Cc3ccc(Cl)cc3)c(C)nc12 [Example 108, 6-[(4-Chlorophenyl)methyl]-7-hydroxy-5-methyl-N-[2-(methylsulfanyl)ethyl] pyrazolo[1,5-a]pyrimidine-3-carboxamide] | 6.00 to 7.00 | 
4 | CCOC(=O)c1nc2ccnn2c(O)c1Cc1cccc(F)c1 [Example 73, Ethyl 6-[(3-fluorophenyl)methyl]-7-hydroxypyrazolo[1,5-a]pyrimidine-5-carboxylate] | 6.00 to 7.00 | 
5 | CC(O)c1nc2ccnn2c(O)c1Cc1cccc(F)c1 (stereo not drawn) [Example 95, 6-[(3-Fluorophenyl)methyl]-5-(1-hydroxyethyl)pyrazolo[1,5-a]pyrimidin-7-ol] | 6.00 to 7.00 | 
6 | CCOC(=O)c1nc2ccnn2c(O)c1Oc1ccc(Cl)c(Cl)c1 [Example 76, Ethyl 6-(3,4-dichlorophenoxy)-7-hydroxy-pyrazolo[1,5-a]pyrimidine-5-carboxylate] | 7.00 to 8.00 | 
7 | Cc1nc2ccnn2c(O)c1N(C)c1cccc(F)c1 [Example 80, 6-[(3-Fluorophenyl)(methyl)amino]-5-methylpyrazolo[1,5-a]pyrimidin-7-ol] | 6.00 to 7.00 | 
8 | Cc1nc2c(Br)cnn2c(O)c1Cc1ccc(Cl)cc1 [Example 58, 3-Bromo-6-[(4-chlorophenyl)methyl]-5-methylpyrazolo[1,5-a]pyrimidin-7-ol] | 7.00 to 8.00 | 
9 | CCc1nc2ccnn2c(O)c1Oc1cccc(C(F)(F)F)c1 [Example 61, 5-Ethyl-6-[3-(trifluoromethyl)phenoxy] pyrazolo[1,5-a]pyrimidin-7-ol] | 6.00 to 7.00 | 
10 | Cc1nc2c(C(=O)N(C)C)cnn2c(O)c1Cc1ccc(Cl)cc1 [Example 100, 6-[(4-Chlorophenyl)methyl]-7-hydroxy-N,N,5-trimethylpyrazolo[1,5-a]pyrimidine-3-carboxamide] | 6.00 to 7.00 | 
11 | COC(=O)c1nc2ccnn2c(O)c1Cc1ccc(Cl)cc1 [Example 6, Methyl 6-[(4-chlorophenyl)methyl]-7-hydroxypyrazolo[1,5-a]pyrimidine-5-carboxylate] | 7.00 to 8.00 | 
12 | COCc1nc2ccnn2c(O)c1Cc1ccc(Cl)c(Cl)c1 [Example 53, 6-[(3,4-Dichlorophenyl)methyl]-5-(methoxymethyl)pyrazolo[1,5-a]pyrimidin-7-ol] | > 8.00 | 
13 | Oc1c(Cc2cccc(Cl)c2)c(C2CCC2)nc2ccnn12 [Example 43, 6-[(3-Chlorophenyl)methyl]-5-cyclobutyl-pyrazolo[1,5-a]pyrimidin-7-ol] | > 8.00 | 
14 | Cc1noc(-c2nc3ccnn3c(O)c2Cc2cccc(F)c2)n1 [Example 92, 6-[(3-Fluorophenyl)methyl]-5-(3-methyl-1,2,4-oxadiazol-5-yl)pyrazolo[1,5-a]pyrimidin-7-ol] | 6.00 to 7.00 | 
15 | CC(C)c1nc2ccnn2c(O)c1Cc1ccc(F)c(F)c1 [Example 35, 6-[(3,4-Difluorophenyl)methyl]-5-(propan-2-yl)pyrazolo[1,5-a]pyrimidin-7-ol] | > 8.00 | 
16 | Oc1c(Cc2ccc(C(F)(F)F)cc2)c(C2CC2)nc2ccnn12 [Example 23] | > 8.00 | 
17 | C=CCNC(=O)c1cnn2c(O)c(Cc3ccc(Cl)cc3)c(C)nc12 [Example 106, 6-[(4-Chlorophenyl)methyl]-7-hydroxy-5-methyl-N-(prop-2-en-1-yl)pyrazolo[1,5-a]-pyrimidine-3-carboxamide] | 6.00 to 7.00 | 
18 | CC(C)OC(=O)c1nc2ccnn2c(O)c1Cc1ccc(Cl)c(Cl)c1 [Example 84, Propan-2-yl 6-[(3,4-dichlorophenyl)-methyl]-7-hydroxy pyrazolo[1,5-a]-pyrimidine-5-carboxylate] | > 8.00 | 
19 | Cc1nc2ccnn2c(O)c1Cc1ccc(Cl)c(Br)c1 [Example 9, 6-[(3-Bromo-4-chlorophenyl)methyl]-5-methylpyrazolo[1,5-a]pyrimidin-7-ol] | 7.00 to 8.00 | 
20 | CC(C)c1nc2ccnn2c(O)c1Oc1ccc(Br)cc1 [Example 66, 6-(4-Bromophenoxy)-5-(propan-2-yl)-pyrazolo[1,5-a]pyrimidin-7-ol] | > 8.00 | 
21 | MCP-1: human recombinant MCP-1, positive control (agonist) of the CCR2 functional assay |  | pEC50 (human CCR2 [1]; agonist positive control): 8.30 to 8.52; concentration giving maximal response (human CCR2 [1]; agonist positive control): 30 nM

Continued, in another order:

Row | pKi (human CCR2 [1]) | Compound | other results
22 | > 8.00 | CCc1nc2ccnn2c(O)c1Oc1ccc(Cl)c(Cl)c1 [Example 64, 6-(3,4-Dichlorophenoxy)-5-ethyl-pyrazolo[1,5-a]pyrimidin-7-ol] | pKi (human CCR2 [2]): 7.00 to 8.00
23 | > 8.00 | CC(C)c1nc2ccnn2c(O)c1Cc1ccc(F)c(Cl)c1 [Example 37, 6-[(3-Chloro-4-fluorophenyl)methyl]-5-(propan-2-yl)pyrazolo[1,5-a]pyrimidin-7-ol] | pKi (human CCR2 [2]): > 8.00
24 | > 8.00 | CC(C)c1nc2ccnn2c(O)c1Cc1ccc(F)c(C(F)(F)F)c1 [Example 40, 6-{[4-Fluoro-3-(trifluoromethyl)phenyl]-methyl}-5-(propan-2-yl)pyrazolo[1,5-a]-pyrimidin-7-ol] | pKi (human CCR2 [2]): 6.00 to 7.00
25 | > 8.00 | Oc1c(Cc2cccc(C(F)(F)F)c2)c(C2CC2)nc2ccnn12 [Example 22, 5-Cycloproyl-6-{[3-(trifluoromethyl)-phenyl]methyl}pyrazolo[1,5-a]pyrimidin-7-ol] | pKi (human CCR2 [2]): 7.00 to 8.00
26 | > 8.00 | CCOC(=O)c1nc2ccnn2c(O)c1Cc1ccc(Cl)c(Cl)c1 [Example 72, Ethyl 6-[(3,4-dichlorophenyl)methyl]-7-hydroxypyrazolo[1,5-a]pyrimidine-5-carboxylate] | pKi (human CCR2 [2]): 7.00 to 8.00
27 | > 8.00 | Oc1c(Cc2cccc(Cl)c2)c(C2CC2)nc2ccnn12 [Example 21, 6-[(3-Chlorophenyl)methyl]-5-cyclo-propylpyrazolo[1,5-a]pyrimidin-7-ol] | pKi (human CCR2 [2]): 7.00 to 8.00
28 | > 8.00 | CCOC(=O)c1nc2ccnn2c(O)c1Cc1cccc(Cl)c1 [Example 70, Ethyl 6-[(3-chlorophenyl)methyl]-7-hydroxypyrazolo[1,5-a]pyrimidine-5-carboxylate] | pKi (human CCR2 [2]): 6.00 to 7.00
29 | > 8.00 | CCCc1nc2ccnn2c(O)c1Cc1ccc(C(F)(F)F)c(F)c1 [Example 16, 6-{[3-Fluoro-4-(trifluoromethyl)phenyl]-methyl}-5-propylpyrazolo[1,5-a]-pyrimidin-7-ol] | pKi (human CCR2 [2]): 6.00 to 7.00
30 | > 8.00 | CC(C)OC(=O)c1nc2ccnn2c(O)c1Cc1ccc(Cl)c(F)c1 [Example 88, Propan-2-yl6-[(4-chloro-3-fluorophenyl)methyl]-7-hydroxypyrazolo[1,5-a]pyrimidine-5-carboxylate] | 
31 | > 8.00 | CCc1nc2ccnn2c(O)c1Cc1cc(F)c(F)c(F)c1 [Example 13, 5-Ethyl-6-[(3,4,5-trifluorophenyl)-methyl]pyrazolo[1,5-a]pyrimidin-7-ol] | 
32 | > 8.00 | Oc1c(Cc2cc(Cl)cc(Cl)c2)c(C2CC2)nc2ccnn12 [Example 34, 5-Cyclopropyl-6-[(3,5-dichlorophenyl)-methyl]pyrazolo[1,5-a]pyrimidin-7-ol] | 
33 | > 8.00 | Oc1c(Oc2ccc(Br)cc2)c(C2CC2)nc2ccnn12 [Example 65, 6-(4-Bromophenoxy)-5-cyclopropyl-pyrazolo[1,5-a]pyrimidin-7-ol] | pKi (human CCR2 [2]): 6.00 to 7.00
34 | > 8.00 | Oc1c(Cc2ccc(Cl)c(Cl)c2)c(C2CCC2)nc2ccnn12 [Example 50, 5-Cyclobutyl-6-[(3,4-dichlorophenyl)-methyl]pyrazolo[1,5-a]pyrimidin-7-ol] | 
